Test results reported in US12281149B2, “Modulators of G-protein coupled receptors” (priority 2021, dated 2025).
*1 amine or outer side, *2 acyl side, *3 side chain or, on linkers, in order; H or OH if unused. Where a SMILES comes first, the peptide text is derived from it. Side-chain parts run from the residue outwards. [ ]: non-standard residue; d: D form. The star is where a group is joined. Isobutyryl(2-(3-CN-5-F-Ph)) = CC(C)(C(=O)*)c1cc(F)cc(C#N)c1; C20 diacid = O=C(O)CCCCCCCCCCCCCCCCCCC(=O)*; γGlu = O=C(O)[C@H](CCC(=O)[*:2])N[*:1]; β2hAla(R) = C[C@H](CN[*:1])C(=O)[*:2]; X65 = CC(C)(C(=O)*)c1cc(N)cc(F)c1; d(β3hD) = NC(CC(=O)O)CC(=O)O; X76 = CC(C)(C(=O)*)c1cncnc1; AEEA = NCCOCCOCC(=O)O; Aib = CC(C)(N)C(=O)O; βAla = NCCC(=O)O

What was measured:
Format in all cases: cell-based
GLP-1 receptor [1] = target: T1, GLP-1 receptor (Homo sapiens, UniProt P43220); assay: PathHunter β-arrestin assay, GLP-1 receptor; parameters: host or cells: PathHunter CHO-K1 GLP1R β-Arrestin Cell Line; conditions: β-arrestin-2 recruitment, PathHunter CHO-K1 GLP1R β-Arrestin Cell Line, 90 min at 37° C.; normalized to GLP-1; read-out: GLP-1R β Arrestin EC50
GLP-1 receptor [2] = target: T1, GLP-1 receptor; assay: HitHunter cAMP assay, GLP-1 receptor; conditions: for EC50: CHO cells stably expressing human GLP-1 receptor, cAMP accumulation, 30 min, read-out: EC50 GLP-1R; for Emax: CHO cells, cAMP, normalized to maximum signal from GLP-1 (high) and DMSO (low), read-out: Emax GLP-1R
GIP receptor [3] = target: T2, GIP receptor (Homo sapiens, UniProt P48546); assay: PathHunter β-arrestin assay, GIP receptor; parameters: host or cells: PathHunter CHO-K1 GIPR β-Arrestin Cell Line; conditions: β-arrestin-2 recruitment, PathHunter CHO-K1 GIPR β-Arrestin Cell Line, 90 min at 37° C.; normalized to GIP; read-out: GIPR β Arrestin EC50
T2 sequence (P48546 22-466): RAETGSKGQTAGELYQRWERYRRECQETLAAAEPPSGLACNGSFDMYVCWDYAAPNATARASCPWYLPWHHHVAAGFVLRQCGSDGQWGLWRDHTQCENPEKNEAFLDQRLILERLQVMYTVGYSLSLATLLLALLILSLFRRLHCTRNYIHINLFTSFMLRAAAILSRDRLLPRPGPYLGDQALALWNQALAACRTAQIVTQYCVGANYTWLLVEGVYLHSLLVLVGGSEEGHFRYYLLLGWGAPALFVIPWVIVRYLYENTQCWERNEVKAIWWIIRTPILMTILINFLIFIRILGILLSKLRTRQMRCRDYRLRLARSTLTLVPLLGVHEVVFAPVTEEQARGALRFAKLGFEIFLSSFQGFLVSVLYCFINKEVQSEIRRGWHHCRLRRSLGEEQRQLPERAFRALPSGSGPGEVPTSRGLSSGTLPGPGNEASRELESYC
Method: β-arrestin-2 recruitment for GLP-1 receptor or GIP receptor was measured using the DiscoverX PathHunter Detection Kit and PathHunter® CHO-K1 GLPIR β-Arrestin Cell Line or PathHunter® CHO-K1 GIPR β-Arrestin Cell Line, respectively). Briefly, cells were grown in Ham's F12 Nutrient Mix with 10% FBS and lifted with Cell dissociation buffer, Enzyme free, PBS based (ThermoFisher). Harvested cells were pelleted and resuspended in Assay Complete Cell Plating Reagent 2 and 5000 cells per well were plated in tissue culture treated 384-well small volume white assay plates. Plates were then incubated at 37° C. and 5% CO2 overnight. The media was then replaced with fresh Assay Complete Cell Plating Reagent 2. Cells were then treated with 10 nl compound in DMSO using an ECHO 550 acoustic dispenser (Labcyte) in a 20-point dose response format in duplicate for 90 min at 37° C. The assay was then completed according to the manufacturer's instructions. Luminescence was measured using a Perkin Elmer Envision plate reader. Raw data was normalized to the maximum signal from GLP-1 or GIP (high) and DMSO (low). Dose response curves were analyzed using GraphPad Prism 9.0.

GIP receptor [4] = target: T2, GIP receptor; assay: HitHunter cAMP assay, GIP receptor; conditions: for EC50: CHO cells stably expressing GIP receptor, cAMP accumulation, 30 min, read-out: EC50 GIP-1R; for Emax: CHO cells, cAMP, normalized to maximum signal from GIP (high) and DMSO (low), read-out: Emax GIP-1R

T1 sequence (P43220 24-463): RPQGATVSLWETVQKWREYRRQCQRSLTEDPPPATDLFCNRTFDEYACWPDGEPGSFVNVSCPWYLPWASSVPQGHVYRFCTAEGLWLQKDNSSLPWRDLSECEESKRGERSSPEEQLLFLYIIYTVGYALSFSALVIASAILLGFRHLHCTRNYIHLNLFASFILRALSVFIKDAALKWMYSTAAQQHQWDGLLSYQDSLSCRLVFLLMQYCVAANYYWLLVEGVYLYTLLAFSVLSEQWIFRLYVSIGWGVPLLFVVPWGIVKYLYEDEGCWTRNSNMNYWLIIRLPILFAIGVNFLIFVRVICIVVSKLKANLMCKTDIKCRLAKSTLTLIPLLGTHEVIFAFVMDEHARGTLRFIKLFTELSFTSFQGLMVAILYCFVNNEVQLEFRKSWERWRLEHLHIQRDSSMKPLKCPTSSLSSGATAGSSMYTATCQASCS

SMILES	EC50 (GLP-1 receptor [1]) [nM]	EC50 (GLP-1 receptor [2]) [nM]	Emax (GLP-1 receptor [2]) [%]	EC50 (GIP receptor [3]) [nM]	EC50 (GIP receptor [4]) [nM]	Emax (GIP receptor [4]) [%]
CC[C@H](C)[C@H](NC(=O)[C@H](CC(C)C)NC(=O)[C@H](Cc1c[nH]c2ccccc12)NC(=O)[C@H](CCC(N)=O)NC(=O)[C@@H](NC(=O)[C@H](Cc1ccccc1)NC(=O)[C@H](C)NC(=O)[C@H](CCCCNC(=O)COCCOCCNC(=O)COCCOCCNC(=O)CC[C@H](NC(=O)CCCCCCCCCCCCCCCCCCC(=O)O)C(=O)O)NC(=O)[C@H](CCC(N)=O)NC(=O)[C@H](C)NC(=O)[C@@H](NC(=O)[C@H](CCCCN)NC(=O)[C@H](CC(=O)O)NC(=O)[C@H](CC(C)C)NC(=O)C(C)(C)NC(=O)[C@@H](NC(=O)[C@H](CO)NC(=O)[C@H](Cc1ccc(O)cc1)NC(=O)[C@H](CC(=O)O)NC(=O)[C@H](CO)NC(=O)[C@@H](NC(=O)[C@H](Cc1ccccc1)NC(=O)[C@@H](NC(=O)CNC(=O)C[C@@H](CC(=O)O)NC(=O)CCNC(=O)C(C)(C)c1cc(F)cc(C#N)c1)[C@@H](C)O)[C@@H](C)O)[C@@H](C)CC)[C@@H](C)CC)C(C)C)C(=O)N[C@@H](C)C(=O)NCC(=O)NCC(=O)N1CCC[C@H]1C(=O)N[C@@H](CO)C(=O)N[C@@H](CO)C(=O)NCC(=O)N[C@@H](C)C(=O)N1CCC[C@H]1C(=O)N1CCC[C@H]1C(=O)N1CCC[C@H]1C(=O)N[C@@H](CO)C(N)=O [Compound 104] ({Isobutyryl(2-(3-CN-5-F-Ph))-βAla}-[d(β3hD)]GTFTSDYSI[Aib]LDKIAQK([AEEA-AEEA-γGlu-C20 diacid])AFVQWLIAGGPSSGAPPPS-NH2)	> 1000	100 to 1000	60	> 1000	100 to 1000	66
CC[C@H](C)[C@H](NC(=O)[C@H](CC(C)C)NC(=O)[C@H](Cc1c[nH]c2ccccc12)NC(=O)[C@H](CCC(N)=O)NC(=O)[C@@H](NC(=O)[C@H](Cc1ccccc1)NC(=O)[C@H](C)NC(=O)[C@H](CCCCNC(=O)COCCOCCNC(=O)COCCOCCNC(=O)CC[C@H](NC(=O)CCCCCCCCCCCCCCCCCCC(=O)O)C(=O)O)NC(=O)[C@H](CCC(N)=O)NC(=O)[C@H](C)NC(=O)[C@@H](NC(=O)[C@H](CCCCN)NC(=O)[C@H](CC(=O)O)NC(=O)[C@H](CC(C)C)NC(=O)C(C)(C)NC(=O)[C@@H](NC(=O)[C@H](CO)NC(=O)[C@H](Cc1ccc(O)cc1)NC(=O)[C@H](CC(=O)O)NC(=O)[C@H](CO)NC(=O)[C@@H](NC(=O)[C@H](Cc1ccccc1)NC(=O)[C@@H](NC(=O)CNC(=O)[C@H](CCC(=O)O)NC(=O)CCNC(=O)C(C)(C)c1cc(N)cc(F)c1)[C@@H](C)O)[C@@H](C)O)[C@@H](C)CC)[C@@H](C)CC)C(C)C)C(=O)N[C@@H](C)C(=O)NCC(=O)NCC(=O)N1CCC[C@H]1C(=O)N[C@@H](CO)C(=O)N[C@@H](CO)C(=O)NCC(=O)N[C@@H](C)C(=O)N1CCC[C@H]1C(=O)N1CCC[C@H]1C(=O)N1CCC[C@H]1C(=O)N[C@@H](CO)C(N)=O [Compound 133] ({X65-βAla}-EGTFTSDYSI[Aib]LDKIAQK([AEEA-AEEA-γGlu-C20 diacid])AFVQWLIAGGPSSGAPPPS-NH2)	> 1000	0.1 to 1	104	> 1000	100 to 1000	107
CC[C@H](C)[C@H](NC(=O)[C@H](CO)NC(=O)[C@H](Cc1ccc(O)cc1)NC(=O)[C@H](CC(=O)O)NC(=O)[C@H](CO)NC(=O)[C@@H](NC(=O)[C@H](Cc1ccccc1)NC(=O)[C@@H](NC(=O)CNC(=O)[C@H](CCC(=O)O)NC(=O)CCNC(=O)[C@]1(c2ccccc2)CNC(=O)C1)[C@@H](C)O)[C@@H](C)O)C(=O)N[C@@H](Cc1ccc(O)cc1)C(=O)N[C@@H](CC(C)C)C(=O)N[C@@H](CC(=O)O)C(=O)N[C@@H](CCCCN)C(=O)N[C@@H](CCC(N)=O)C(=O)N[C@@H](C)C(=O)N[C@@H](C)C(=O)N[C@@H](CCCCNC(=O)COCCOCCNC(=O)COCCOCCNC(=O)CC[C@H](NC(=O)CCCCCCCCCCCCCCCCCCC(=O)O)C(=O)O)C(=O)N[C@@H](CCC(=O)O)C(=O)N[C@@H](Cc1ccccc1)C(=O)N[C@H](C(=O)N[C@@H](CC(N)=O)C(=O)N[C@@H](Cc1c[nH]c2ccccc12)C(=O)N[C@@H](CC(C)C)C(=O)N[C@@H](CC(C)C)C(=O)N[C@@H](C)C(=O)NCC(=O)NCC(=O)N1CCC[C@H]1C(=O)N[C@@H](CO)C(=O)N[C@@H](CO)C(=O)NCC(=O)N[C@@H](C)C(=O)N1CCC[C@H]1C(=O)N1CCC[C@H]1C(=O)N1CCC[C@H]1C(=O)N[C@@H](CO)C(N)=O)C(C)C (single isomer, unassigned) [Compound 128]	> 1000	1 to 10	99	> 1000	10 to 100	101
CC[C@H](C)[C@H](NC(=O)[C@H](CC(C)C)NC(=O)[C@H](Cc1c[nH]c2ccccc12)NC(=O)[C@H](CCC(N)=O)NC(=O)[C@@H](NC(=O)[C@H](Cc1ccccc1)NC(=O)[C@H](C)NC(=O)[C@H](CCCCNC(=O)COCCOCCNC(=O)COCCOCCNC(=O)CC[C@H](NC(=O)CCCCCCCCCCCCCCCCCCC(=O)O)C(=O)O)NC(=O)[C@H](CCC(N)=O)NC(=O)[C@H](C)NC(=O)[C@@H](NC(=O)[C@H](CCCCN)NC(=O)[C@H](CC(=O)O)NC(=O)[C@H](CC(C)C)NC(=O)C(C)(C)NC(=O)[C@@H](NC(=O)[C@H](CO)NC(=O)[C@H](Cc1ccc(O)cc1)NC(=O)[C@H](CC(=O)O)NC(=O)[C@H](CO)NC(=O)[C@@H](NC(=O)[C@H](Cc1ccccc1)NC(=O)[C@@H](NC(=O)CNC(=O)[C@H](CCC(=O)O)NC(=O)[C@H](C)CNC(=O)C(C)(C)c1cc(F)cc(C#N)c1)[C@@H](C)O)[C@@H](C)O)[C@@H](C)CC)[C@@H](C)CC)C(C)C)C(=O)N[C@@H](C)C(=O)NCC(=O)NCC(=O)N1CCC[C@H]1C(=O)N[C@@H](CO)C(=O)N[C@@H](CO)C(=O)NCC(=O)N[C@@H](C)C(=O)N1CCC[C@H]1C(=O)N1CCC[C@H]1C(=O)N1CCC[C@H]1C(=O)N[C@@H](CO)C(N)=O [Compound 225] ({Isobutyryl(2-(3-CN-5-F-Ph))}-[β2hAla(R)]EGTFTSDYSI[Aib]LDKIAQK([AEEA-AEEA-γGlu-C20 diacid])AFVQWLIAGGPSSGAPPPS-NH2)	> 1000	0.1 to 1	102	> 1000	10 to 100	98
CC[C@H](C)[C@H](NC(=O)[C@H](CC(C)C)NC(=O)[C@H](Cc1c[nH]c2ccccc12)NC(=O)[C@H](CCC(N)=O)NC(=O)[C@@H](NC(=O)[C@H](Cc1ccccc1)NC(=O)[C@H](C)NC(=O)[C@H](CCCCNC(=O)COCCOCCNC(=O)COCCOCCNC(=O)CC[C@H](NC(=O)CCCCCCCCCCCCCCCCCCC(=O)O)C(=O)O)NC(=O)[C@H](CCC(N)=O)NC(=O)[C@H](C)NC(=O)[C@@H](NC(=O)[C@H](CCCCN)NC(=O)[C@H](CC(=O)O)NC(=O)[C@H](CC(C)C)NC(=O)C(C)(C)NC(=O)[C@@H](NC(=O)[C@H](CO)NC(=O)[C@H](Cc1ccc(O)cc1)NC(=O)[C@H](CC(=O)O)NC(=O)[C@H](CO)NC(=O)[C@@H](NC(=O)[C@H](Cc1ccccc1)NC(=O)[C@@H](NC(=O)CNC(=O)[C@H](CCC(=O)O)NC(=O)CCNC(=O)C(C)(C)c1cncnc1)[C@@H](C)O)[C@@H](C)O)[C@@H](C)CC)[C@@H](C)CC)C(C)C)C(=O)N[C@@H](C)C(=O)NCC(=O)NCC(=O)N1CCC[C@H]1C(=O)N[C@@H](CO)C(=O)N[C@@H](CO)C(=O)NCC(=O)N[C@@H](C)C(=O)N1CCC[C@H]1C(=O)N1CCC[C@H]1C(=O)N1CCC[C@H]1C(=O)N[C@@H](CO)C(N)=O [Compound 161] ({X76-βAla}-EGTFTSDYSI[Aib]LDKIAQK([AEEA-AEEA-γGlu-C20 diacid])AFVQWLIAGGPSSGAPPPS-NH2)	> 1000	0.1 to 1	113	> 1000	10 to 100	94
